Experimental data taken from patent US10722520B2, “Heterocyclic compounds and their use in preventing or treating bacterial infections” (MUTABILIS, priority 2016, dated 2020).

Assays:
K. pneumoniae 6299 [1] = experiment: MIC of compound alone, broth microdilution; type: cell-based; conditions: Klebsiella pneumoniae, 6299, read-out: MIC compounds of the invention alone
Outline: (§1)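 Growth inhibition was scored by eye after 16-20 h at 35° C (room air), with bacteria from log phase seeded at 5×10^5 cfu/mL final in cation-adjusted Mueller-Hinton medium.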

P. aeruginosa CIP107051 [2] = experiment: MIC of compound alone, broth microdilution; type: cell-based; conditions: Pseudomonas aeruginosa, CIP107051, read-out: MIC compounds of the invention alone
Outline: as §1

E. cloacae 260508 = experiment: MIC of ceftazidime (CAZ) at fixed concentration of compound (synergy), broth microdilution; type: cell-based; conditions: MIC of ceftazidime with compound fixed at 4 μg/mL; strain 260508 (E. cloacae)
Outline: as §1

E. cloacae P99 = experiment: as above; type: cell-based; conditions: MIC of ceftazidime with compound fixed at 4 μg/mL; strain P99 (E. cloacae)
Outline: as §1

E. cloacae UFR51 = experiment: as above; type: cell-based; conditions: MIC of ceftazidime with compound fixed at 4 μg/mL; strain UFR51 (E. cloacae)
Outline: as §1

E. cloacae UFR70 = experiment: as above; type: cell-based; conditions: MIC of ceftazidime with compound fixed at 4 μg/mL; strain UFR70 (E. cloacae)
Outline: as §1

E. cloacae UFR85 = experiment: as above; type: cell-based; conditions: MIC of ceftazidime with compound fixed at 4 μg/mL; strain UFR85 (E. cloacae)
Outline: as §1

E. coli 131119 = experiment: as above; type: cell-based; conditions: MIC of ceftazidime with compound fixed at 4 μg/mL; strain 131119 (E. coli)
Outline: as §1

E. coli 190317 = experiment: as above; type: cell-based; conditions: MIC of ceftazidime with compound fixed at 4 μg/mL; strain 190317 (E. coli)
Outline: as §1

E. coli RGN238 = experiment: as above; type: cell-based; conditions: MIC of ceftazidime with compound fixed at 4 μg/mL; strain RGN238 (E. coli)
Outline: as §1

E. coli UFR18 = experiment: as above; type: cell-based; conditions: MIC of ceftazidime with compound fixed at 4 μg/mL; strain UFR18 (E. coli)
Outline: as §1

E. coli UFR32 = experiment: as above; type: cell-based; conditions: MIC of ceftazidime with compound fixed at 4 μg/mL; strain UFR32 (E. coli)
Outline: as §1

E. coli UFR39 = experiment: as above; type: cell-based; conditions: MIC of ceftazidime with compound fixed at 4 μg/mL; strain UFR39 (E. coli)
Outline: as §1

E. coli UFR41 = experiment: as above; type: cell-based; conditions: MIC of ceftazidime with compound fixed at 4 μg/mL; strain UFR41 (E. coli)
Outline: as §1

E. coli UFR61O = experiment: as above; type: cell-based; conditions: MIC of ceftazidime with compound fixed at 4 μg/mL; strain UFR61O (E. coli)
Outline: as §1

E. coli UFR74 = experiment: as above; type: cell-based; conditions: MIC of ceftazidime with compound fixed at 4 μg/mL; strain UFR74 (E. coli)
Outline: as §1

K. oxytoca UFR21 = experiment: as above; type: cell-based; conditions: MIC of ceftazidime with compound fixed at 4 μg/mL; strain UFR21 (K. oxytoca)
Outline: as §1

K. pneumoniae 160143 = experiment: as above; type: cell-based; conditions: MIC of ceftazidime with compound fixed at 4 μg/mL; strain 160143 (K. pneumoniae)
Outline: as §1

K. pneumoniae 200047 = experiment: as above; type: cell-based; conditions: MIC of ceftazidime with compound fixed at 4 μg/mL; strain 200047 (K. pneumoniae)
Outline: as §1

K. pneumoniae 6299 [3] = experiment: as above; type: cell-based; conditions: MIC of ceftazidime with compound fixed at 4 μg/mL; strain 6299 (K. pneumoniae)
Outline: as §1

K. pneumoniae BAA-1898 = experiment: as above; type: cell-based; conditions: MIC of ceftazidime with compound fixed at 4 μg/mL; strain BAA-1898 (K. pneumoniae)
Outline: as §1

K. pneumoniae UFR24 = experiment: as above; type: cell-based; conditions: MIC of ceftazidime with compound fixed at 4 μg/mL; strain UFR24 (K. pneumoniae)
Outline: as §1

K. pneumoniae UFR68 = experiment: as above; type: cell-based; conditions: MIC of ceftazidime with compound fixed at 4 μg/mL; strain UFR68 (K. pneumoniae)
Outline: as §1

K. pneumoniae UFR77 = experiment: as above; type: cell-based; conditions: MIC of ceftazidime with compound fixed at 4 μg/mL; strain UFR77 (K. pneumoniae)
Outline: as §1

P. aeruginosa CIP107051 [4] = experiment: as above; type: cell-based; conditions: MIC of ceftazidime with compound fixed at 4 μg/mL; strain CIP107051 (P. aeruginosa)
Outline: as §1

CMY-37 = CMY-37 (Citrobacter freundii, UniProt P05193); conditions: read-out: IC50 β-lactamase CMY-37; class (C); nitrocefin 200 μM, 30-min pre-incubation, enzyme 0.2 nM
Chain of CMY-37 (P05193 21-381 limits assumed): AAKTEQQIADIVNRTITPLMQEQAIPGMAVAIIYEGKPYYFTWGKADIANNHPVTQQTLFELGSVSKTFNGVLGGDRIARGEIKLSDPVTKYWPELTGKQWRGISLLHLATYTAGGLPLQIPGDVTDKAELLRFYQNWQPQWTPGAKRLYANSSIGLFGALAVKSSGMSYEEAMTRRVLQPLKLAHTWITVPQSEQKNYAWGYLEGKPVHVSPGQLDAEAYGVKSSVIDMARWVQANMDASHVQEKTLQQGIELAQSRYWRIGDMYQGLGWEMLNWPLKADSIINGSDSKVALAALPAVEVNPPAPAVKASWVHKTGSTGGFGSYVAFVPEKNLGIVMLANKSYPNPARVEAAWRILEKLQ

O=C1N2CC(n3cccn3)=CC(C2)N1OC(F)(F)C(=O)[O-].[Li+] (centres unmarked) [Example 4, lithium difluoro-(7-oxo-3-pyrazol-1-yl-1,6-diaza-bicyclo[3.2.1]oct-3-en-6-yloxy)-acetate]
MIC (K. pneumoniae 6299 [1]): 16 µg/mL
MIC (P. aeruginosa CIP107051 [2]): > 32 µg/mL
MIC combination of CAZ and compounds of the invention at 4 μg/mL (E. cloacae 260508): ≤0.25
MIC combination of CAZ and compounds of the invention at 4 μg/mL (E. cloacae P99): ≤0.25
MIC combination of CAZ and compounds of the invention at 4 μg/mL (E. cloacae UFR51): <0.25
MIC combination of CAZ and compounds of the invention at 4 μg/mL (E. cloacae UFR70): <0.25
MIC combination of CAZ and compounds of the invention at 4 μg/mL (E. cloacae UFR85): 1
MIC combination of CAZ and compounds of the invention at 4 μg/mL (E. coli 131119): <0.25
MIC combination of CAZ and compounds of the invention at 4 μg/mL (E. coli 190317): <0.25
MIC combination of CAZ and compounds of the invention at 4 μg/mL (E. coli RGN238): <0.25
MIC combination of CAZ and compounds of the invention at 4 μg/mL (E. coli UFR18): <0.25
MIC combination of CAZ and compounds of the invention at 4 μg/mL (E. coli UFR32): <0.25
MIC combination of CAZ and compounds of the invention at 4 μg/mL (E. coli UFR39): <0.25
MIC combination of CAZ and compounds of the invention at 4 μg/mL (E. coli UFR41): <0.25
MIC combination of CAZ and compounds of the invention at 4 μg/mL (E. coli UFR61O): <0.25
MIC combination of CAZ and compounds of the invention at 4 μg/mL (E. coli UFR74): <0.25
MIC combination of CAZ and compounds of the invention at 4 μg/mL (K. oxytoca UFR21): 4
MIC combination of CAZ and compounds of the invention at 4 μg/mL (K. pneumoniae 160143): <0.25
MIC combination of CAZ and compounds of the invention at 4 μg/mL (K. pneumoniae 200047): <0.25
MIC combination of CAZ and compounds of the invention at 4 μg/mL (K. pneumoniae 6299 [3]): ≤0.25
MIC combination of CAZ and compounds of the invention at 4 μg/mL (K. pneumoniae BAA-1898): 0.5
MIC combination of CAZ and compounds of the invention at 4 μg/mL (K. pneumoniae UFR24): 0.5
MIC combination of CAZ and compounds of the invention at 4 μg/mL (K. pneumoniae UFR68): 4
MIC combination of CAZ and compounds of the invention at 4 μg/mL (K. pneumoniae UFR77): <0.25
MIC combination of CAZ and compounds of the invention at 4 μg/mL (P. aeruginosa CIP107051 [4]): 4
IC50 (CMY-37): 150 nM
